Measured values from patent publication US12185723B2, “Herbicidally active 3-phenylisoxazoline-5-carboxamides of s-containing cyclopentenylcarboxylic esters” (Bayer Aktiengesellschaft, priority 2019, dated 2025).

Assays:
Type in all cases: in vivo
[1] = test system: Alopecurus myosuroides; experiment: Post-emergence herbicidal action against ALOMY; settings: visual rating about 3 weeks after treatment
Protocol: (§1) Post-Emergence Herbicidal Action Against Harmful Plants and Crop Plant Compatibility Seeds of monocotyledonous and dicotyledonous weeds and crop plants are placed in sandy loam in plastic or wood-fibre pots, covered with soil and cultivated in a greenhouse under controlled growth conditions. 2 to 3 weeks after sowing, the test plants are treated at the one-leaf stage. The compounds of the invention, formulated in the form of wettable powders (WP) or as emulsion concentrates (EC), are then sprayed onto the green parts of the plants as aqueous suspension or emulsion with addition of 0.5% additive at a water application rate of 600 l/ha (converted). After the test plants have been kept in the greenhouse under optimum growth conditions for about 3 weeks, the activity of the preparations is rated visually in comparison to untreated controls. For example, 100% activity=the plants have died, 0% activity=like control plants. [table]

[2] = test system: Avena fatua; experiment: Post-emergence herbicidal action against AVEFA; settings: visual rating about 3 weeks after treatment
Protocol: as §1

[3] = test system: DIGSA; experiment: Post-emergence herbicidal action against DIGSA; settings: 20 g a.i./ha, visual rating about 3 weeks after treatment
Protocol: as §1, with “plants.” for “plants. [table]”

[4] = test system: Echinochloa crus-galli; experiment: Post-emergence herbicidal action against ECHCG; settings: visual rating about 3 weeks after treatment
Protocol: as §1

[5] = test system: Setaria viridis; experiment: Post-emergence herbicidal action against SETVI; settings: visual rating about 3 weeks after treatment
Protocol: as §1

[6] = test system: Abutilon theophrasti; experiment: Post-emergence herbicidal action against ABUTH; settings: 20 g a.i./ha, visual rating about 3 weeks after treatment
Protocol: as §1

[7] = test system: Matricaria inodora; experiment: Post-emergence herbicidal action against MATIN; settings: 20 g a.i./ha
Protocol: as §1

[8] = test system: Pharbitis purpurea; experiment: Post-emergence herbicidal action against PHBPU; settings: 20 g a.i./ha
Protocol: as §1

[9] = test system: Polygonum convolvulus; experiment: Post-emergence herbicidal action against POLCO; settings: 20 g a.i./ha
Protocol: as §1

[10] = test system: Veronica persica; experiment: Post-emergence herbicidal action against VERPE
Protocol: as §1

[11] = test system: Lolium rigidum; experiment: Post-emergence herbicidal action against LOLRI; settings: visual rating about 3 weeks after treatment
Protocol: as §1

[12] = test system: Amaranthus retroflexus; experiment: Post-emergence herbicidal action against AMARE; settings: 20 g a.i./ha
Protocol: as §1

[13] = test system: Stellaria media; experiment: Post-emergence herbicidal action against STEME; settings: 80 g a.i./ha
Protocol: as §1

[14] = test system: Hordeum murinum; experiment: Post-emergence herbicidal action against HORMU
Protocol: as §1

Structure (SMILES)	Herbicidal action against [%] ALOMY ([1]; 20 g a.i./ha)	Herbicidal action against [%] AVEFA ([2]; 20 g a.i./ha)	Herbicidal action against [%] DIGSA [3]	Herbicidal action against [%] ECHCG ([4]; 20 g a.i./ha)	Herbicidal action against [%] SETVI ([5]; 20 g a.i./ha)	Herbicidal action against [%] ABUTH [6]	Herbicidal action against [%] MATIN [7]	Herbicidal action against [%] PHBPU [8]	Herbicidal action against [%] POLCO [9]	Herbicidal action against [%] VERPE ([10]; 20 g a.i./ha)	Herbicidal action against [%] LOLRI ([11]; 20 g a.i./ha)	Herbicidal action against [%] AMARE [12]	other results
CC1(C(=O)NC2C=CC(C(=O)OCCSc3ccccc3)C2)CC(c2cc(F)cc(F)c2)=NO1 (stereo not shown) [Example I-16]	90%	90%	80%	80%	80%	80%	80%	80%	80%	80%	–	–	–
CSCCOC(=O)C1C=CC(NC(=O)C2(CF)CC(c3cc(F)cc(C#N)c3)=NO2)C1 (stereo not shown) [Example I-65]	90%	80%	–	80%	–	80%	80%	–	90%	80%	80%	80%	–
CSCCOC(=O)C1C=CC(NC(=O)C2(CCl)CC(c3cc(C)cc(F)c3)=NO2)C1 (stereo not shown) [Example I-57]	80%	–	–	–	–	–	80%	–	–	–	–	–	–
C=CC1(C(=O)NC2C=CC(C(=O)OCCSC)C2)CC(c2cc(C)cc(C)c2)=NO1 (mixture of isomers) [Example I-45]	–	–	–	–	–	–	–	–	–	80%	–	–	Herbicidal action against [%] ALOMY ([1]; 80 g a.i./ha): 90%; Herbicidal action against [%] AVEFA ([2]; 80 g a.i./ha): 80%; Herbicidal action against [%] ECHCG ([4]; 80 g a.i./ha): 80%; Herbicidal action against [%] LOLRI ([11]; 80 g a.i./ha): 90%; Herbicidal action against [%] SETVI ([5]; 80 g a.i./ha): 80%; Herbicidal action against [%] STEME [13]: 90%; Herbicidal action against [%] VERPE ([10]; 80 g a.i./ha): 80%; Herbicidal action against [%] HORMU ([14]; 20 g a.i./ha): 80%; Herbicidal action against [%] HORMU ([14]; 80 g a.i./ha): 80%
CC1(C(=O)NC2C=CC(C(=O)OCCSCC(F)(F)F)C2)CC(c2cc(F)cc(F)c2)=NO1 (stereo not shown) [Example I-12]	90%	–	80%	80%	80%	–	80%	80%	80%	–	80%	–	–
C=CC1(C(=O)NC2C=CC(C(=O)OCCSC)C2)CC(c2cc(Cl)cc(Cl)c2)=NO1 (stereo not shown) [Example I-55]	100%	80%	80%	–	90%	80%	80%	80%	80%	90%	–	90%	–
COC1(C(=O)NC2C=CC(C(=O)OCCSC)C2)CC(c2cc(F)cc(F)c2)=NO1 (stereo not shown) [Example I-20]	90%	90%	80%	90%	80%	80%	80%	80%	–	80%	90%	80%	–
C[S+]([O-])CCOC(=O)C1C=CC(NC(=O)C2(C)CC(c3cc(F)cc(F)c3)=NO2)C1 (mixture of isomers) [Example I-66]	90%	80%	–	80%	–	–	80%	80%	80%	–	80%	80%	–
CC1(C(=O)NC2C=CC(C(=O)OCCSC(F)(F)F)C2)CC(c2cc(F)cc(F)c2)=NO1 (stereo not shown) [Example I-13]	90%	90%	80%	–	80%	80%	80%	–	–	80%	80%	–	–
